Experimental data reported in patent US12030875B2, “EIF4E inhibitors and uses thereof” (PIC Therapeutics, Inc., priority 2018, dated 2024).

Target: T1, Human eIF4E (Homo sapiens, UniProt P06730)
T1 construct: Human eIF4E (aa 28-217) with a C-terminal His-tag; made in house
Assay: Human eIF4E/4G2 binding assay (TR-FRET)
Settings: eIF4E (aa 28-217) with biotin labeled 4G2 peptide
Procedure: Human eIF4E (aa 28-217) with a C-terminal His-tag was expressed in E. coli in inclusion bodies. The protein was solubilized with 8 M urea and purified under denaturing conditions using nickel-charged HisTrap HP columns (GE Healthcare). The purified protein was then refolded by diluting in 20 mM Hepes pH 7.0, 0.5 M NaCl, 1 mM DTT, 1 mM EDTA, 0.5 M arginine plus 6 M urea, and then dialyzing overnight into the same buffer without the urea. The protein was further dialyzed into 20 mM Hepes, pH 6.5, 50 mM NaCl, 1 mM EDTA, 1 mM DTT, and concentrated using Hitrap SP sepharose FF columns (GE Healthcare). The concentrated protein was dialyzed into 20 mM Hepes, pH 7.0, 0.5M NaCl, 5 mM DTT and 10% glycerol, and stored at −80° C. until use.
Test compounds (3.43 mM stock in DMSO) were diluted 2-fold in series in DMSO (10 concentration points). Compound solutions (1.2 μl/well) were added into black 384-well polypropylene microplates (Matrix, Thermal Scientific). Twenty-two microliters per well of Assay Buffer (50 mM NaPi, pH 6.5, 50 mM KCl, 1 mM DTT and 0.5 mg/ml gamma globulin) and eight microliters per well of 82.5 nM purified eIF4E in Assay Buffer were added. The samples were incubated at room temperature (20-23° C.) for 15 min. Biotin labeled 4G2 peptide (Ac-Lys-Gln-Tyr-Asp-Arg-Glu-Phe-Leu-Leu-Asp-Phe-Gln-Phe-Met-Pro-Lys(Aha-Bio)-NH2, 1.75 μM stock in DMSO) was diluted to 0.14 μM in Assay Buffer (without DTT) and 5 μl/well was added. The samples were incubated at room temperature for 15 min. Five microliters per well of 6.4 nM Eu-streptavidin (Eu-SA, Perkin Elmer) and 80 nM Allophycocyanin (APC)-anti His antibody (Columbia Biosciences) in Assay Buffer (without DTT) were then added and the samples were incubated at room temperature for 20 min.
Assay signals were monitored by reading excitation at 340 nm and emission fluorescence at 615 nm and 665 nm on an Envision reader (Perkin Elmer). Normalized TR-FRET (time-resolved fluorescence resonance energy transfer) assay signal (Rn) was calculated by the formula: Rn═[(A−Ba−C×D)/(D−Bd)]×(Dc−Bd) • Where A is the fluorescence intensity of the sample at 665 nm, • D is the fluorescence intensity of the sample at 615 nm, • Ba and Bd are plate backgrounds at 665 nm and 615 nm, respectively, • Dc is the fluorescence intensity of 0.78 nM Eu-SA in the assay buffer at 615 nm • The cross-talk factor (C) is determined by the following formula: C=(Ac−Ba)/(Dc−Bd) • Where Ac is the fluorescence intensity of 0.78 nM Eu-SA in the assay buffer at 665 nm.
IC50 values were calculated using xLFit program (IDBS).

T1 sequence (P06730 28-217): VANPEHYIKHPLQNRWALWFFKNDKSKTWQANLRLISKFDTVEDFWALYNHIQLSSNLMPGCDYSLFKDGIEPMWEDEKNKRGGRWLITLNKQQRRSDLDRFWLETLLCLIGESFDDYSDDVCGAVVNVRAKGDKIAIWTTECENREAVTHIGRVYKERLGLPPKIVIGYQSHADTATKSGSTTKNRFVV

| Structure (SMILES) | IC50 [µM] |
| --- | --- |
| CC(C)C(CC(=O)O)Nc1nc(-c2ccc(-c3ccc(F)cc3)cc2)c(-c2cncnc2)s1 (stereo not shown) [Compound I-67] | > 25 |
| CC(C)C(CC(=O)O)Nc1nc(-c2ccc(-c3ccc(F)cc3)cc2)c(-c2cccnc2)s1 (stereo not shown) [Compound I-68] | > 25 |
| CC(C)(CNc1nc(-c2ccc(-c3ccc(F)cc3)cc2)cs1)C(=O)O [Compound I-70] | > 25 |
| CC(C)(CNc1nc(-c2ccc(-c3ccc(F)cc3)cc2)c(-c2cncnc2)s1)C(=O)O [Compound I-73] | > 25 |
| O=C(O)C1CN(c2nc(-c3ccc(-c4ccc(F)cc4)cc3)cs2)C1 [Compound I-76] | > 25 |
| O=C(O)C1CN(c2nc(-c3ccc(-c4ccc(F)cc4)cc3)c(-c3cncnc3)s2)C1 [Compound I-78] | > 25 |
| O=C(O)C1CN(c2nc(-c3ccc(-c4ccc(F)cc4)cc3)c(-c3cccnc3)s2)C1 [Compound I-79] | > 25 |
| CC1(C(=O)O)CN(c2nc(-c3ccc(-c4ccc(F)cc4)cc3)cs2)C1 [Compound I-81] | > 25 |
| CC1(C(=O)O)CN(c2nc(-c3ccc(-c4ccc(F)cc4)nc3)c(-c3cncnc3)s2)C1 [Compound I-84] | > 25 |
| CC1(C(=O)O)CN(c2nc(-c3ccc(-c4ccc(F)cc4)cc3)c(-c3cccnc3)s2)C1 [Compound I-85] | > 25 |
| CCCC(CNc1nc(-c2ccc(-c3ccc(F)cc3)cc2)cs1)C(=O)O (stereo not shown) [Compound I-87] | > 25 |
| CCCC(CNc1nc(-c2ccc(-c3ccc(F)cc3)cc2)c(-c2cncnc2)s1)C(=O)O (stereo not shown) [Compound I-90] | > 25 |
| CCCC(CNc1nc(-c2ccc(-c3ccc(F)cc3)cc2)c(-c2cccnc2)s1)C(=O)O (stereo not shown) [Compound I-91] | > 25 |
| CC(CC(=O)O)Nc1nc(-c2ccc(-c3ccc(F)cc3)cc2)cs1 (stereo not shown) [Compound I-93] | > 25 |
| CC(CC(=O)O)Nc1nc(-c2ccc(-c3ccc(F)cc3)cc2)c(-c2cncnc2)s1 (stereo not shown) [Compound I-96] | > 25 |
| CC(CC(=O)O)Nc1nc(-c2ccc(-c3ccc(F)cc3)cc2)c(-c2cccnc2)s1 (stereo not shown) [Compound I-97] | > 25 |
| CC(CNc1nc(-c2ccc(-c3ccc(F)cc3)cc2)cs1)C(=O)O (stereo not shown) [Compound I-99] | > 25 |
| CC(CNc1nc(-c2cncnc2)c(-c2ccc(-c3ccc(F)cc3)cc2)s1)C(=O)O (stereo not shown) [Compound I-102] | > 25 |
| CC(CNc1nc(-c2ccc(-c3ccc(F)cc3)cc2)c(-c2cccnc2)s1)C(=O)O (stereo not shown) [Compound I-103] | > 25 |
| O=C(O)C1CCCN(c2nc(-c3ccc(-c4ccc(F)cc4)cc3)c(-c3cncnc3)s2)C1 (stereo not shown) [Compound I-107] | > 25 |
| O=C(O)C1CCCN(c2nc(-c3ccc(-c4ccc(F)cc4)cc3)c(-c3cccnc3)s2)C1 (stereo not shown) [Compound I-108] | 5 to 25 |
| O=C(O)CC1CCCN1c1nc(-c2ccc(-c3ccc(F)cc3)cc2)cs1 (stereo not shown) [Compound I-110] | > 25 |
| O=C(O)CC1CCCN1c1nc(-c2ccc(-c3ccc(F)cc3)nc2)c(-c2cncnc2)s1 (stereo not shown) [Compound I-112] | > 25 |
| O=C(O)CC1CCCN1c1nc(-c2ccc(-c3ccc(F)cc3)cc2)c(-c2cccnc2)s1 (stereo not shown) [Compound I-113] | > 25 |
| O=C(O)C1CCN(c2nc(-c3ccc(-c4ccc(F)cc4)cc3)cs2)C1 (stereo not shown) [Compound I-115] | > 25 |
| O=C(O)C1CCN(c2nc(-c3ccc(-c4ccc(F)cc4)cc3)c(-c3cncnc3)s2)C1 (stereo not shown) [Compound I-117] | > 25 |
| O=C(O)C1CCN(c2nc(-c3ccc(-c4ccc(F)cc4)cc3)c(-c3cccnc3)s2)C1 (stereo not shown) [Compound I-118] | > 25 |
| O=C(O)C1CCN(c2nc(-c3ccc(-c4ccc(F)cc4)cc3)c(-c3cccc4[nH]ccc34)s2)C1 (stereo not shown) [Compound I-119] | 5 to 25 |
| O=C(O)C1(CNc2nc(-c3ccc(-c4ccc(F)cc4)cc3)cs2)CC1 [Compound I-120] | > 25 |
| O=C(O)C1(CNc2nc(-c3ccc(-c4ccc(F)cc4)cc3)c(Br)s2)CC1 [Compound I-121] | 5 to 25 |

Continued, values first:

| IC50 [µM] | Structure (SMILES) |
| --- | --- |
| 5 to 25 | CC(C)C(CC(=O)O)Nc1nc(-c2ccc(-c3ccc(F)cc3)cc2)c(-c2cccc3[nH]ccc23)s1 (stereo not shown) [Compound I-69] |
| 5 to 25 | CC(C)(CNc1nc(-c2ccc(-c3ccc(F)cc3)cc2)c(Br)s1)C(=O)O [Compound I-71] |
| < 5 | CC(C)(CNc1nc(-c2ccc(-c3ccc(F)cc3)cc2)c(-c2ccccc2)s1)C(=O)O [Compound I-72] |
| 5 to 25 | CC(C)(CNc1nc(-c2ccc(-c3ccc(F)cc3)cc2)c(-c2cccnc2)s1)C(=O)O [Compound I-74] |
| 5 to 25 | CC(C)(CNc1nc(-c2ccc(-c3ccc(F)cc3)cc2)c(-c2cccc3[nH]ccc23)s1)C(=O)O [Compound I-75] |
| 5 to 25 | O=C(O)C1CN(c2nc(-c3ccc(-c4ccc(F)cc4)cc3)c(-c3ccccc3)s2)C1 [Compound I-77] |
| 5 to 25 | O=C(O)C1CN(c2nc(-c3ccc(-c4ccc(F)cc4)cc3)c(-c3cccc4[nH]ccc34)s2)C1 [Compound I-80] |
| 5 to 25 | CC1(C(=O)O)CN(c2nc(-c3ccc(-c4ccc(F)cc4)cc3)c(Br)s2)C1 [Compound I-82] |
| < 5 | CC1(C(=O)O)CN(c2nc(-c3ccc(-c4ccc(F)cc4)cc3)c(-c3ccccc3)s2)C1 [Compound I-83] |
| 5 to 25 | CC1(C(=O)O)CN(c2nc(-c3ccc(-c4ccc(F)cc4)cc3)c(-c3cccc4[nH]ccc34)s2)C1 [Compound I-86] |
| 5 to 25 | CCCC(CNc1nc(-c2ccc(-c3ccc(F)cc3)cc2)c(Br)s1)C(=O)O (stereo not shown) [Compound I-88] |
| < 5 | CCCC(CNc1nc(-c2ccc(-c3ccc(F)cc3)cc2)c(-c2ccccc2)s1)C(=O)O (stereo not shown) [Compound I-89] |
| 5 to 25 | CCCC(CNc1nc(-c2ccc(-c3ccc(F)cc3)cc2)c(-c2cccc3[nH]ccc23)s1)C(=O)O (stereo not shown) [Compound I-92] |
| 5 to 25 | CC(CC(=O)O)Nc1nc(-c2ccc(-c3ccc(F)cc3)cc2)c(Br)s1 (stereo not shown) [Compound I-94] |
| 5 to 25 | CC(CC(=O)O)Nc1nc(-c2ccc(-c3ccc(F)cc3)cc2)c(-c2ccccc2)s1 (stereo not shown) [Compound I-95] |
| 5 to 25 | CC(CC(=O)O)Nc1nc(-c2ccc(-c3ccc(F)cc3)cc2)c(-c2cccc3[nH]ccc23)s1 (stereo not shown) [Compound I-98] |
| 5 to 25 | CC(CNc1nc(-c2ccc(-c3ccc(F)cc3)cc2)c(Br)s1)C(=O)O (stereo not shown) [Compound I-100] |
| 5 to 25 | CC(CNc1nc(-c2ccc(-c3ccc(F)cc3)cc2)c(-c2ccccc2)s1)C(=O)O (stereo not shown) [Compound I-101] |
| 5 to 25 | CC(CNc1nc(-c2ccc(-c3ccc(F)cc3)cc2)c(-c2cccc3[nH]ccc23)s1)C(=O)O (stereo not shown) [Compound I-104] |
| 5 to 25 | O=C(O)C1CCCN(c2nc(-c3ccc(-c4ccc(F)cc4)cc3)cs2)C1 (stereo not shown) [Compound I-105] |
| < 5 | O=C(O)C1CCCN(c2nc(-c3ccc(-c4ccc(F)cc4)cc3)c(-c3ccccc3)s2)C1 (stereo not shown) [Compound I-106] |
| < 5 | O=C(O)C1CCCN(c2nc(-c3ccc(-c4ccc(F)cc4)cc3)c(-c3cccc4[nH]ccc34)s2)C1 (stereo not shown) [Compound I-109] |
| < 5 | O=C(O)CC1CCCN1c1nc(-c2ccc(-c3ccc(F)cc3)cc2)c(-c2ccccc2)s1 (stereo not shown) [Compound I-111] |
| < 5 | O=C(O)CC1CCCN1c1nc(-c2ccc(-c3ccc(F)cc3)cc2)c(-c2cccc3[nH]ccc23)s1 (stereo not shown) [Compound I-114] |
| < 5 | O=C(O)C1CCN(c2nc(-c3ccc(-c4ccc(F)cc4)cc3)c(-c3ccccc3)s2)C1 (stereo not shown) [Compound I-116] |
